Tests used:
IL-6 = IL-6 (Homo sapiens, UniProt P05231); assay: Immunoassay binding test, IL-6 (gp130 receptor, IL-6Ra present); settings: IL-6Ra 200 ng/ml
Summary of the method: (§1)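 Compounds (final 100 to 0.78 μM) were preincubated 2 h at 37 °C with a fixed amount of cytokine; for IL-6, IL-6Ra was also present at 200 ng/ml final. Mixtures were then incubated overnight at 4 °C on receptor-coated plates. Bound cytokine was detected with biotinylated anti-cytokine antibody and avidin-HRP, read as OD at 450 nm.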

IL-4 = target: T1, IL-4 (Homo sapiens, UniProt P05112); assay: Immunoassay binding test, IL-4; settings: for IC50: IL-4 400 ng/ml, receptor 100 ng/ml, read-out: BINDING IL4 IC50
T1 sequence (P05112 25-153): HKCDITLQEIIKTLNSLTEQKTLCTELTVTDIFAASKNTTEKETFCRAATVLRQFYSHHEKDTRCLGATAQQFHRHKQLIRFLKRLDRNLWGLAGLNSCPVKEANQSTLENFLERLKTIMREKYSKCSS
Summary of the method: as §1

TNFa/TNFRI interaction = TNFa/TNFRI interaction (Homo sapiens, UniProt P01375); assay: TNFa/TNFRI interaction displacement test; format: binding; settings: for Displacement EC50 TNFa in presence of compound: Difference: Compound EC50 minus SPD304 EC50; for Displacement (%): compounds at 50 μM, human TNFRI 100 ng/ml;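 on Displacement EC50 TNFa in presence of compound: Difference: SPD304 reference at 20 µM final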
Chain of TNFa/TNFRI interaction (P01375 77-233 limits assumed): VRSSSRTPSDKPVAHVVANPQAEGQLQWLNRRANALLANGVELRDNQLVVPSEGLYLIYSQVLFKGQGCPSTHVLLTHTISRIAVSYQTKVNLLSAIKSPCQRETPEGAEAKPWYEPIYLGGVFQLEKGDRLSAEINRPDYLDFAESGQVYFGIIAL
Summary of the method: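 Plates coated overnight at 4° C with human TNFRI (100 ng/ml) and blocked with 2% BSA, then test mixtures were incubated overnight at 4° C. Bound cytokine detected with biotinylated anti-cytokine antibody (2 h, 37° C) and avidin-HRP, read as OD at 450 nm.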

IL-13 = IL-13 (Homo sapiens, UniProt P35225); assay: Immunoassay binding test, IL-13; settings: for IC50: IL-13 400 ng/ml, receptor 100 ng/ml, read-out: BINDING IL13 IC50
Chain of IL-13 (P35225 25-146, species assumed): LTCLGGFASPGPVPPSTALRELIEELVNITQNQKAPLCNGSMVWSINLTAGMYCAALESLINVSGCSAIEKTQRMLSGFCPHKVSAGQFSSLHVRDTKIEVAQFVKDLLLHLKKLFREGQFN
Summary of the method: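 Receptor-coated plates; compounds (100 to 0.78 μM final) preincubated 2 h at 37° C with fixed cytokine, then bound to receptor overnight at 4° C. Bound cytokine detected with biotinylated anti-cytokine antibody and avidin-HRP, OD 450 nm.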

TNFα = TNFα (Homo sapiens, UniProt P01375); assay: Immunoassay binding test, TNFa; settings: compounds 100 to 0.78 μM; TNFα 10 ng/ml, receptor 100 ng/ml; read-out: BINDING TNF IC50
Chain of TNFα (P01375 77-233 limits assumed, species assumed): as the sequence (P01375 77-233 limits assumed) above
Summary of the method: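 ELISA-type binding test: receptor-coated plates blocked with 2% BSA, then cytokine (six-point dilution series) preincubated 2 h at 37 °C and bound overnight at 4 °C. Detection used biotinylated anti-cytokine antibody and avidin-HRP, read as OD at 450 nm. For IL-6, IL-6Ra was present at 200 ng/ml final.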

Chain of IL-6 (P05231 30-212, species assumed): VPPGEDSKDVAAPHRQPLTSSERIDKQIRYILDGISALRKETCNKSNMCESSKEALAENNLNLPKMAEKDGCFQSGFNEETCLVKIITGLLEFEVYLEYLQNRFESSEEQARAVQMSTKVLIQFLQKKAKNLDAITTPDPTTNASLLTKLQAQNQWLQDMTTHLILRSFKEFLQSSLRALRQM

Compound: O=S(=O)(c1ccccc1)n1cc(CN(CCCCCNC2CCCCC2)Cc2cccnc2)c2ccccc21 [Compound 34]
- BINDING IL6 % Neutra at 100 μM (IL-6): −4.8%
- BINDING IL4 % Neutra at 100 μM (IL-4): 95.4%
- IC50 (IL-4): 5.9 µM
- Displacement EC50 TNFa in presence of compound: Difference (TNFa/TNFRI interaction): 9.9 ng/mL
- Displacement (%) (TNFa/TNFRI interaction): 256%
- BINDING IL13 % Neutra at 100 μM (IL-13): 97.9%
- IC50 (IL-13): > 50 µM
- IC50 (TNFα): 7.2 µM

Compound: CCCN(CCOCCN(Cc1cccnc1F)Cc1cn(S(=O)(=O)c2ccccc2)c2ccccc12)C1CCCCC1 [Compound 101]
- BINDING IL6 % Neutra at 100 μM (IL-6): 0%
- BINDING IL4 % Neutra at 100 μM (IL-4): 81.9%
- IC50 (IL-4): 7.9 µM
- Displacement (%) (TNFa/TNFRI interaction): 152%
- BINDING IL13 % Neutra at 100 μM (IL-13): 56.3%
- IC50 (IL-13): 35.5 µM
- IC50 (TNFα): 17.4 µM

Compound: CN(CCCCN(Cc1ccnc(F)c1)Cc1cn(S(=O)(=O)c2ccccc2)c2ccccc12)C1CCCCC1 [Compound 50, N1-cyclohexyl-N4-((2-fluoropyridin-4-yl)methyl)-N1-methyl-N4-((1-(phenylsulfonyl)-1H-indol-3-yl)methyl)butane-1,4-diamine]
- BINDING IL6 % Neutra at 100 μM (IL-6): 0%
- BINDING IL4 % Neutra at 100 μM (IL-4): 90.6%
- IC50 (IL-4): 6.3 µM
- Displacement (%) (TNFa/TNFRI interaction): 138%
- BINDING IL13 % Neutra at 100 μM (IL-13): 90.3%
- IC50 (IL-13): 26.2 µM
- IC50 (TNFα): 7.2 µM

Compound: CN(CCCCCN(Cc1ccc(F)nc1)Cc1cn(S(=O)(=O)c2ccccc2)c2ccccc12)C1CCCCC1 [Compound 58]
- BINDING IL6 % Neutra at 100 μM (IL-6): 1%
- BINDING IL4 % Neutra at 100 μM (IL-4): 92.5%
- IC50 (IL-4): 2.1 µM
- Displacement (%) (TNFa/TNFRI interaction): 126%
- BINDING IL13 % Neutra at 100 μM (IL-13): 89.1%
- IC50 (IL-13): 10.4 µM
- IC50 (TNFα): 6.7 µM

Compound: O=S(=O)(c1ccccc1)n1cc(CN(CCCCNC2CCCCCC2)Cc2cccnc2F)c2ccccc21 [Compound 73, N′-cycloheptyl-N^4-((2-fluoropyridin-3-yl)methyl)-N^4-((1-(phenylsulfonyl)-1H-indol-3-yl)methyl)butane-1,4-diamine]
- BINDING IL6 % Neutra at 100 μM (IL-6): 0%
- BINDING IL4 % Neutra at 100 μM (IL-4): 91.0%
- IC50 (IL-4): 6 µM
- Displacement (%) (TNFa/TNFRI interaction): 161%
- BINDING IL13 % Neutra at 100 μM (IL-13): 87.2%
- IC50 (IL-13): 14.9 µM
- IC50 (TNFα): 8.4 µM

Compound: CN(CCCCN(Cc1cccnc1)Cc1cn(S(=O)(=O)c2ccccc2)c2ccccc12)C1CCCCC1 [Compound 17]
- BINDING IL6 % Neutra at 100 μM (IL-6): 20.7%
- BINDING IL4 % Neutra at 100 μM (IL-4): 97.9%
- IC50 (IL-4): 5 µM
- Displacement (%) (TNFa/TNFRI interaction): 133%
- BINDING IL13 % Neutra at 100 μM (IL-13): 87.7%
- IC50 (IL-13): > 50 µM
- IC50 (TNFα): 1.1 µM

Compound: NS(=O)(=O)NCCCCN(Cc1cccnc1F)Cc1cn(S(=O)(=O)c2ccccc2)c2ccccc12 [Compound 77]
- BINDING IL6 % Neutra at 100 μM (IL-6): 0%
- BINDING IL4 % Neutra at 100 μM (IL-4): 13.7%
- IC50 (IL-4): > 100 µM
- Displacement (%) (TNFa/TNFRI interaction): 35%
- BINDING IL13 % Neutra at 100 μM (IL-13): 0%
- IC50 (TNFα): > 50 µM

Compound: CN(CCCCN(Cc1ccncc1)Cc1cn(-c2cccc(C(F)(F)F)c2)c2ccccc12)C1CCCCC1 [Compound 24]
- BINDING IL6 % Neutra at 100 μM (IL-6): 3.6%
- BINDING IL4 % Neutra at 100 μM (IL-4): 98.8%
- IC50 (IL-4): 3.1 µM
- Displacement EC50 TNFa in presence of compound: Difference (TNFa/TNFRI interaction): 6.3 ng/mL
- Displacement (%) (TNFa/TNFRI interaction): 158%
- BINDING IL13 % Neutra at 100 μM (IL-13): 85.3%
- IC50 (IL-13): > 50 µM
- IC50 (TNFα): 13.5 µM

Compound: CN(CCCCN(Cc1cccnc1F)Cc1cn(S(=O)(=O)c2ccccc2)c2ncccc12)C1CCCCC1 [Compound 94, N1-cyclohexyl-N4-((2-fluoropyridin-3-yl)methyl)-N1-methyl-N4-((1-(phenylsulfonyl)-1H-pyrrolo[2,3-b]pyridin-3-yl)methyl)butane-1,4-diamine]
- BINDING IL6 % Neutra at 100 μM (IL-6): 0%
- BINDING IL4 % Neutra at 100 μM (IL-4): 95.8%
- IC50 (IL-4): 34.5 µM
- Displacement (%) (TNFa/TNFRI interaction): 101%
- BINDING IL13 % Neutra at 100 μM (IL-13): 75.2%
- IC50 (IL-13): > 50 µM
- IC50 (TNFα): 19 µM

Compound: CN(CCCCN(Cc1ccn(S(=O)(=O)c2ccccc2)c1)Cc1cccnc1F)C1CCCCC1 [Compound 91, N1-cyclohexyl-N4-((2-fluoropyridin-3-yl)methyl)-N1-methyl-N4-((1-(phenylsulfonyl)-1H-pyrrol-3-yl)methyl)butane-1,4-diamine]
- BINDING IL6 % Neutra at 100 μM (IL-6): 0%
- BINDING IL4 % Neutra at 100 μM (IL-4): 87.5%
- IC50 (IL-4): 16.4 µM
- Displacement (%) (TNFa/TNFRI interaction): 87%
- BINDING IL13 % Neutra at 100 μM (IL-13): 35.8%
- IC50 (IL-13): > 50 µM
- IC50 (TNFα): 27.5 µM

Compound: O=S(=O)(c1ccccc1)n1cc(CN(CCNC2CCCCC2)Cc2cccnc2)c2ccccc21 [Compound 25]
- BINDING IL6 % Neutra at 100 μM (IL-6): −15.3%
- BINDING IL4 % Neutra at 100 μM (IL-4): 94.6%
- IC50 (IL-4): 7.8 µM
- Displacement (%) (TNFa/TNFRI interaction): 99%
- BINDING IL13 % Neutra at 100 μM (IL-13): 61.2%
- IC50 (IL-13): > 50 µM
- IC50 (TNFα): 22.6 µM

Compound: CN(CCN(Cc1ccncc1)Cc1cn(S(=O)(=O)c2ccccc2)c2ccccc12)C1CCCCC1 [Compound 28]
- BINDING IL6 % Neutra at 100 μM (IL-6): 12.4%
- BINDING IL4 % Neutra at 100 μM (IL-4): 96.6%
- IC50 (IL-4): 8.1 µM
- Displacement (%) (TNFa/TNFRI interaction): 125%
- BINDING IL13 % Neutra at 100 μM (IL-13): 38.3%
- IC50 (IL-13): > 50 µM
- IC50 (TNFα): 14.5 µM

Compound: CCN(CC)S(=O)(=O)NCCCCN(Cc1cccnc1F)Cc1cn(S(=O)(=O)c2ccccc2)c2ccccc12 [Compound 79]
- BINDING IL6 % Neutra at 100 μM (IL-6): 1%
- BINDING IL4 % Neutra at 100 μM (IL-4): 31.0%
- IC50 (IL-4): > 100 µM
- Displacement (%) (TNFa/TNFRI interaction): 3%
- BINDING IL13 % Neutra at 100 μM (IL-13): 0%
- IC50 (TNFα): > 50 µM

Compound: NCCCCN(Cc1cn(S(=O)(=O)c2ccccc2)c2ccccc12)Cc1cn(S(=O)(=O)c2ccccc2)c2ccccc12 [Compound 87]
- BINDING IL6 % Neutra at 100 μM (IL-6): 6%
- BINDING IL4 % Neutra at 100 μM (IL-4): 95.5%
- IC50 (IL-4): 4.4 µM
- Displacement (%) (TNFa/TNFRI interaction): 28%
- BINDING IL13 % Neutra at 100 μM (IL-13): 94.2%
- IC50 (IL-13): 8.2 µM
- IC50 (TNFα): 18.8 µM

Compound: NCCCCN(Cc1cccnc1F)Cc1cn(S(=O)(=O)c2ccccc2)c2ccccc12 [Compound 63]
- BINDING IL6 % Neutra at 100 μM (IL-6): 0%
- BINDING IL4 % Neutra at 100 μM (IL-4): 85.9%
- IC50 (IL-4): 16 µM
- Displacement (%) (TNFa/TNFRI interaction): 88%
- BINDING IL13 % Neutra at 100 μM (IL-13): 55.4%
- IC50 (IL-13): > 50 µM
- IC50 (TNFα): 26.5 µM

Compound: O=S(=O)(NCCCCN(Cc1cccnc1F)Cc1cn(S(=O)(=O)c2ccccc2)c2ccccc12)N1CCOCC1 [Compound 82]
- BINDING IL6 % Neutra at 100 μM (IL-6): 5%
- BINDING IL4 % Neutra at 100 μM (IL-4): 27.9%
- IC50 (IL-4): > 100 µM
- Displacement (%) (TNFa/TNFRI interaction): 18%
- BINDING IL13 % Neutra at 100 μM (IL-13): 0%
- IC50 (TNFα): > 50 µM

Compound: CCN(CCOCCN(Cc1cccnc1F)Cc1cn(S(=O)(=O)c2ccccc2)c2ccccc12)C1CCCCC1 [Compound 100]
- BINDING IL6 % Neutra at 100 μM (IL-6): 0%
- BINDING IL4 % Neutra at 100 μM (IL-4): 87.7%
- IC50 (IL-4): 8.6 µM
- Displacement (%) (TNFa/TNFRI interaction): 128%
- BINDING IL13 % Neutra at 100 μM (IL-13): 83.0%
- IC50 (IL-13): > 50 µM
- IC50 (TNFα): 8 µM
